According to the supplement of paper PMC8253809:

How the values were obtained:
[1] = tested on: DIPGX9 (diffuse intrinsic pontine glioma line); test: maximal growth inhibition (yFin) relative to DMSO / staurosporine; higher = more efficacious
Method in brief: (§1)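 Patient-derived pHGG/DIPG cell lines and astrocyte controls were plated in 384-well plates coated with 1% Geltrex and dosed by pin tool with a 10-point threefold dilution series (mean top concentration 35 μM), in triplicate. Cells were exposed for 7 days (3 days for iAstro) at 37 °C and 5% CO2. CellTiter-Glo luminescence was log2-transformed, normalised per plate to % activity between negative (solvent) and positive control wells, and pooled. EC50 and maximal response (yFin) were taken from whichever three- or four-parameter log-logistic fit had the lowest AICc.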

[2] = tested on: SUDIPGXXI (diffuse intrinsic pontine glioma line); test: as above
Method in brief: as §1

[3] = tested on: HGGX2 (paediatric high-grade glioma line); test: as above
Method in brief: as §1

[4] = tested on: SUDIPGXIII (diffuse intrinsic pontine glioma line); test: as above
Method in brief: as §1

[5] = tested on: SUDIPGIV (diffuse intrinsic pontine glioma line); test: as above
Method in brief: as §1

[6] = tested on: SUDIPGXVII (diffuse intrinsic pontine glioma line); test: as above
Method in brief: as §1

[7] = tested on: HGGX39 (paediatric high-grade glioma line); test: as above
Method in brief: as §1

[8] = tested on: HGGX42 (H3.3 G34R paediatric high-grade glioma line); test: as above
Method in brief: as §1

[9] = tested on: HGGX6 (H3.3 G34R paediatric high-grade glioma line); test: as above
Method in brief: as §1

[10] = tested on: SUDIPGXIX (diffuse intrinsic pontine glioma line); test: as above
Method in brief: as §1

[11] = tested on: SUDIPGVI (diffuse intrinsic pontine glioma line); test: as above
Method in brief: as §1

[12] = tested on: DIPGX7 (H3.3 K27M diffuse intrinsic pontine glioma line); test: as above
Method in brief: as §1

[13] = tested on: DIPGX29 (H3.3 K27M diffuse intrinsic pontine glioma line); test: as above
Method in brief: as §1

[14] = tested on: HABS (astrocyte control); test: as above
Method in brief: as §1

[15] = tested on: DIPGX37 (H3.3 K27M diffuse intrinsic pontine glioma line); test: as above
Method in brief: as §1

[16] = tested on: iAstro (astrocyte control); test: as above
Method in brief: as §1

[17] = tested on: DIPGX9; test: area under dose-response curve of % growth inhibition (log2 RLU vs DMSO / staurosporine), 1e-11 to 1e-4 M (% x log10 M); higher = more growth inhibition
Method in brief: (§2)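 Patient-derived pHGG/DIPG cell lines and astrocyte controls were grown on 1% Geltrex-coated 384-well plates and exposed to a 10-point threefold dilution series (mean top concentration 35 μM), in triplicate. Exposure was 7 days (iAstro 3 days) at 37 °C, 5% CO2. CellTiter-Glo luminescence was log2-transformed and normalised per plate to % activity between solvent and positive controls. Area under the curve was taken by trapezoid rule from the fitted log-logistic curve, or from a smoothing spline when the sigmoid fit failed.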

[18] = tested on: SUDIPGXXI; test: as above
Method in brief: as §2

[19] = tested on: HGGX2; test: as above
Method in brief: as §2

[20] = tested on: SUDIPGXIII; test: as above
Method in brief: as §2

[21] = tested on: SUDIPGIV; test: as above
Method in brief: as §2

[22] = tested on: SUDIPGXVII; test: as above
Method in brief: as §2

[23] = tested on: HGGX39; test: as above
Method in brief: as §2

[24] = tested on: HGGX42; test: as above
Method in brief: as §2

[25] = tested on: HGGX6; test: as above
Method in brief: as §2

[26] = tested on: SUDIPGXIX; test: as above
Method in brief: as §2

[27] = tested on: DIPGX7; test: as above
Method in brief: as §2

[28] = tested on: DIPGX29; test: as above
Method in brief: as §2

[29] = tested on: HABS; test: as above
Method in brief: as §2

[30] = tested on: DIPGX37; test: as above
Method in brief: as §2

Structure (SMILES)	maximal growth inhibition [1] [%]	maximal growth inhibition [2] [%]	maximal growth inhibition [3] [%]	maximal growth inhibition [4] [%]	maximal growth inhibition [5] [%]	maximal growth inhibition [6] [%]	maximal growth inhibition [7] [%]	maximal growth inhibition [8] [%]	maximal growth inhibition [9] [%]	maximal growth inhibition [10] [%]	maximal growth inhibition [11] [%]	maximal growth inhibition [12] [%]	maximal growth inhibition [13] [%]	maximal growth inhibition [14] [%]	maximal growth inhibition [15] [%]	maximal growth inhibition [16] [%]	area under dose-response curve [17]	area under dose-response curve [18]	area under dose-response curve [19]	area under dose-response curve [20]	area under dose-response curve [21]	area under dose-response curve [22]	area under dose-response curve [23]	area under dose-response curve [24]	area under dose-response curve [25]	area under dose-response curve [26]	area under dose-response curve [27]	area under dose-response curve [28]	area under dose-response curve [29]	area under dose-response curve [30]
CC(=O)c1ccc2c(c1)c1cc(C(C)=O)ccc1n2CCNC(C)C [CBL-0137]	106	113	83.4	96.5	96.8	97.5	104	91.8	88.7	98	92.3	99.2	94.2	74.4	101	23.8	218	277	134	123	156	129	148	154	122	223	137	135	155	199
O=C(Nc1ccc(Nc2nccc(Nc3cc(C4CCCC4)[nH]n3)n2)cc1)Nc1cccc(C(F)(F)F)c1 [CD532]	115	109	111	103	112	100	104	102	87.6	112	111	112	94.4	122	98.2	95.2	305	352	246	235	276	247	200	271	202	283	282	221	174	238
NC1CCC(Nc2cc(-c3cccc(NCc4cccc(F)c4)n3)c(Cl)cn2)CC1 (stereo not given) [CDK9-IN-2]	88.7	95.9	95.4	94.9	88.1	87	99.7	76.7	67.1	86.9	71.3	90.4	71.8	98.5	77.5	85.7	278	326	181	167	243	232	172	230	199	254	249	206	180	214
C[C@@H](Oc1cc(-c2cnn(C3CCNCC3)c2)cnc1N)c1c(Cl)ccc(F)c1Cl [CRIZOTINIB]	101	119	97.4	92.3	98.4	96.4	92.8	102	88.6	99.6	94.1	104	104	90.9	102	87.3	112	200	107	74.2	96.9	87	64	117	59.1	123	91.9	87.6	76.5	87.8
COc1ccc(-c2nc(N3CCOCC3)c3sc(CN(C)c4ncc(C(=O)NO)cn4)cc3n2)cn1 [CUDC-907]	108	122	103	109	113	107	112	105	102	119	98	97.5	106	129	119	73.6	368	470	298	188	319	294	325	315	264	346	294	298	299	331
CN1CCCN(C(=O)c2cccc(-c3ccc(/C=C4/C(=O)Nc5ccc(Cl)cc54)o3)c2)CC1 [CX-6258]	108	106	108	104	107	110	110	106	106	110	108	110	112	112	109	102	167	330	162	112	165	137	139	184	132	162	157	179	124	191
